{"source": "patent EP1792623B1", "about": "“Use of extracts and constituents of leontopodium as enhancers of cholinergic function” (Leopold-Franzens-Universität Innsbruck, priority 2005, dated 2007)", "key": {"acetylcholinesterase": {"tested_on": "acetylcholinesterase", "format": "biochemical", "details": "100 µM, after 60 min, in comparison to medium control, n=4", "method": "Experiments are carried out applying Ellman's method in a 96-well microplate assay described by Ingkaninan et al, Journal of Chromatography A 827 (2000) p. 6173 and Rhee et al, Journal of Chromatography A 915 (2001) p. 217-223. In addition to buffer A described above, a buffer containing 0.1 M NaCl and 0.02 M MgClx2.6 H2O in buffer A is used for preparing a 3 mM solution of DTNB. For the microplate assay the substrate ATCI is dissolved 15 mM in water (HPLC grade). The enzyme stock solution is diluted with buffer A to get 0.22 U/ml. In the 96-well plates, 25 µl of 15 mM ATCl, 125 µl of 3 mM DTNB, 50 µl of buffer A, and 25 µl of sample (10 mM in MeOH, respectively DMSO (dimethylsulfoxide), diluted ten times with buffer A) are added. […] […] The absorbance of the product (2-nitrobenzoate-5-mercapto thioline) is measured at 405 nm with a Chameleon 5025 (Hidex, Finland) microplate reader 0, 15, 30, 45 and 60 minutes after adding 25 µl of 0.22 U/ml acetylcholinesterase-solution to the reaction mixture. All experiments are performed 4 times (n=4) and the data are statistically processed using the SPSS 11.5 program package. Percentage of inhibition is calculated by comparing the rates for the sample to the blank (10% MeOH, resp. DMSO, in buffer)."}, "[1]": {"tested_on": "C56BL/6N female, 3-month mice", "test": "T-maze continuous alternation task", "format": "in vivo", "method": "(§1) Animals: C56BL/6N female, 3-month mice, weighing 20 - 27 g, were used in the present study. The animals were housed in groups of six to ten in cages (40 (L) x 25 (W) x 15 (H) cm) placed in a room at a constant temperature (22±1 °C), 12-light/ 12-dark cycle (07:00-19:00 h), with food and water ad libitum. Experiments were conducted between 09:00 and 16:00h.\n(§2) Surgery: Mice were anaesthetized with Pentobarbital sodium (60 mg/kg, i.p.) and placed in a stereotaxic frame. A guide cannula (gauge 25, o.d. 0.52 mm, i.d, 0.26 mm and 7 mm long) was stereotaxically implanted through a hole on the skull into the brain area 0.5 mm higher than the third cerebral ventricle (-0.1 mm posterior, 0.8 mm lateral to bregma, -2.2 mm ventral to the dura) (Franklin KBJ, Paxinos G (1997) The mouse brain in stereotaxic coordinates. Academic Press San Diego). Guide cannula was secured to the skull using two small screws and dental cement. The microinjector (Hamilton gauge 32, o.d. 0.24 mm and i.d. 0.11 mm, 7.5 mm long) protruded 0.5 mm from the tip of the guide cannula to reach the cerebral ventricle. Mice recovered for 5 days before any experimentation was done.\n(§3) Drugs: Scopolamine hydrobromide (Sigma, St. Louis, MO, U.S.A.) was dissolved in saline. Isocomene was dissolved in vehicle solution (3 parts DMSO : 7 parts sterile water). The animals were randomly divided into experimental groups and administered a cerebral ventricle injection of saline, scopolamine, isocomene or scopolamine and isocomene in a volume µl during 1 min. The injector was left in place an extra 1 min for drug diffusion after injection. These substances and vehicle were injected 15 min prior to the test.\nExperimental design and drug application: Animals were randomly divided into three experimental groups (6-9 mice per group) as follows: vehicle; scopolamine hybrobromide 20 µg (50 nmol) in 1µl ICV, isocomene 8.16 µg (40 nmol) in 2µl ICV, and scopolamine hybrobromide 20 µg plus isocomene 2 µg ICV. […]"}, "[2]": {"tested_on": "C56BL/6N female, 3-month mice", "test": "Object recognition task (scopolamine-induced learning deficit)", "format": "in vivo", "method": "as §1, §2, §3\nExperimental design and drug application: Animals were randomly divided into […] experimental groups (6-9 mice per group) as follows: vehicle; scopolamine hybrobromide 20 µg (50 nmol) in 1µl ICV, isocomene 8.16 µg (40 nmol) in 2µl ICV, and scopolamine hybrobromide 20 µg plus isocomene 2 µg ICV. All substances were injected 15 min before the test (T-maze and open field) or before the training trial T1 (object recognition test) through the 7.5 mm long injector connected with i.d. 0.28 mm polyethylene tubing to 5 µl Hamilton syringe.\nApparatus: The test apparatus consisted of a box made of Plexiglas (40 (L) x 25 (W) x 15 (H) cm), which was illuminated by a lamp above the box. In the different parts of the apparatus, the light intensity was equal at 100 lux. The objects to be discriminated were made of plastic or metal, were in the different shapes: cubes and cylinders 1.5-cm high in white or green colour; they could not be displaced by mice. In addition, these objects had no genuine significance for mice and had never been associated with a reinforcement.\nProcedure: The object recognition test was performed as described elsewhere (Ennaceur A, Delacour J (1988) A new one-trial test for neurobiological studies of memory in rats. 1: Behavioural data. Behav Brain Res. 31: 47-59). On the day before testing, the animals were allowed to explore the apparatus for 10 min (without objects), while on the testing day, a session of two 10-min trials was given. During the training trial (sample trial) (T1), two identical objects were placed opposite sides 8 cm from the short walls. A mouse was placed in the middle of apparatus and was left to explore these two identical objects in 10 min. After T1, the mouse was put back in its home cage and a 24-hour inter-trial interval was given. […]"}, "[3]": {"details": "scopolamine 20 µg ICV alone, T2"}, "[4]": {"details": "isocomene 8.16 µg ICV in mice given scopolamine 20 µg ICV"}}, "note": "Where a name gives a salt, the structure may show the parent alone.", "data": [{"compound": "1-acetyloxy-3-angeloyloxy-(4E,6E)-tetradeca-4,6-dien-8,10,12-triyne and the 4E,6Z isomer", "values": [{"measurement": "inhibition (%)", "setting": "acetylcholinesterase", "result": 16.5, "unit": "%"}]}, {"compound": "15-acetoxy-modhephene", "values": [{"measurement": "inhibition (%)", "setting": "acetylcholinesterase", "result": 56.4, "unit": "%"}]}, {"compound": "C=C(CO)[C@H]1Oc2ccc(C(C)=O)cc2[C@H]1O[C@@H]1O[C@H](CO)[C@@H](O)[C@H](O)[C@H]1O", "note": "(relative stereo) [1-{(2R*,3R*)-2-[1-(hydroxymethyl)vinyl]-3-(β-D-gluco-pyranosyloxy)-2,3-dihydro-1-benzofuran-5-yl}-ethanone]", "values": [{"measurement": "inhibition (%)", "setting": "acetylcholinesterase", "result": -0.6, "unit": "%"}]}, {"compound": "CC(=O)OCC1=C[C@]2(C)CCC3[C@H](C)CCC32C1C", "note": "(relative stereo) [[(1R*,3aS,6R)-1,3a,6-trimethyl-1,3a,4,5,5a,6,7,8-octahydrocyclo-penta[c]pentalen-2-yl]methylacetat]", "values": [{"measurement": "inhibition (%)", "setting": "acetylcholinesterase", "result": 61.8, "unit": "%"}]}, {"compound": "C=C(C)C1COc2cc3oc(=O)ccc3c(O)c2O1", "note": "(centres unmarked) [5-hydroxy-obliquin]", "values": [{"measurement": "inhibition (%)", "setting": "acetylcholinesterase", "result": 1.9, "unit": "%"}]}, {"compound": "C=C(C)C1COc2cc3oc(=O)ccc3c(OC)c2O1", "note": "(centres unmarked) [5-methoxy-obliquin]", "values": [{"measurement": "inhibition (%)", "setting": "acetylcholinesterase", "result": 3.4, "unit": "%"}]}, {"compound": "CN1[C@@H]2C[C@@H](OC(=O)[C@H](CO)c3ccccc3)C[C@H]1[C@@H]1O[C@@H]12", "note": "[Scopolamine, Scopolamine hydrobromide]", "values": [{"measurement": "alternation rate", "setting": "[1]; scopolamine 20 µg ICV alone", "result": "pronounced decrease in alternation rate"}, {"measurement": "discrimination index", "setting": "[2]; [3]", "result": "zero"}, {"measurement": "exploration ratio", "setting": "[2]; [3]", "result": "~1.0"}, {"measurement": "exploration time", "setting": "[2]; scopolamine 20 µg ICV alone, vs vehicle-treated control mice", "result": "no significant difference"}]}, {"compound": "C/C=C(/C)C(=O)OC[C@H]1[C@@H](Cc2cc(OC)c(OC)c(OC)c2)CO[C@@H]1c1cc(OC)c(OC)c(OC)c1", "note": "[[(2S,3R,4R)-4-(3,4,5-trimethoxy-benzyl)-2-(3,4,5-trimethoxy-phenyl)tetrahydrofuran-3-yl]methyl-(2Z)-2-methylbut-2-en-oate]", "values": [{"measurement": "inhibition (%)", "setting": "acetylcholinesterase", "result": -6.4, "unit": "%"}]}, {"compound": "C/C=C(/C)C(=O)OC[C@H]1[C@@H](Cc2ccc(OC)c(OC)c2)CO[C@@H]1c1cc(OC)c(OC)c(OC)c1", "note": "[[(2S,3R,4R)-4-(3,4-dimethoxy-benzyl)-2-(3,4,5-trimethoxy-phenyl)tetrahydrofuran-3-yl]methyl-(2Z)-2-methylbut-2-en-oate]", "values": [{"measurement": "inhibition (%)", "setting": "acetylcholinesterase", "result": 5.0, "unit": "%"}]}, {"compound": "C/C=C(/C)C(=O)OC[C@H]1[C@@H](Cc2ccc(OC)c(OC)c2)CO[C@@H]1c1ccc(OC)c(OC)c1", "note": "[[(2S,3R,4R)-4-(3,4-dimethoxy-benzyl)-2-(3,4-dimethoxy-phenyl)tetrahydrofuran-3-yl]methyl-(2Z)-2-methylbut-2-en-oate]", "values": [{"measurement": "inhibition (%)", "setting": "acetylcholinesterase", "result": 17.5, "unit": "%"}]}, {"compound": "C=C(C)C1COc2cc3oc(=O)ccc3cc2O1", "note": "(centres unmarked) [obliquine]", "values": [{"measurement": "inhibition (%)", "setting": "acetylcholinesterase", "result": 18.1, "unit": "%"}]}, {"compound": "C[C@@H]1CC[C@@H]2C(C)(C)C[C@]3(C)CC=C[C@]123", "note": "[silphinene]", "values": [{"measurement": "inhibition (%)", "setting": "acetylcholinesterase", "result": 3.2, "unit": "%"}]}, {"compound": "CC1=C[C@@H]2[C@@H](CC1)[C@@](C)(O)CC[C@H]2C(C)C", "note": "[t-Cadinol]", "values": [{"measurement": "inhibition (%)", "setting": "acetylcholinesterase", "result": 10.3, "unit": "%"}]}, {"compound": "(4a,7b,8a,9b,15a)-7,9-dihydroxy-15-{[(2Z)-2-methylbut-2-enoyl]oxy} kaur-16-en-19-oate", "values": [{"measurement": "inhibition (%)", "setting": "acetylcholinesterase", "result": 53.7, "unit": "%"}]}, {"compound": "bisabolan A", "values": [{"measurement": "inhibition (%)", "setting": "acetylcholinesterase", "result": 23.3, "unit": "%"}]}, {"compound": "bisabolan E", "values": [{"measurement": "inhibition (%)", "setting": "acetylcholinesterase", "result": 56.9, "unit": "%"}]}, {"compound": "ent-kaur-16-enic-19-acid", "values": [{"measurement": "inhibition (%)", "setting": "acetylcholinesterase", "result": 35.6, "unit": "%"}]}, {"compound": "isocomene", "values": [{"measurement": "alternation rate", "setting": "[1]; 8.16 µg isocomene ICV alone, mean ± SEM, control mice 52 ± 2.46 %", "result": "69.96 ± 2.42", "unit": "%"}, {"measurement": "alternation rate", "setting": "[1]; [4]", "result": "abolished this effect of scopolamine"}, {"measurement": "discrimination index", "setting": "[2]; [4]", "result": "potently increased"}, {"measurement": "exploration ratio", "setting": "[2]; [4]", "result": "potently increased"}, {"measurement": "inhibition (%)", "setting": "acetylcholinesterase", "result": 39.6, "unit": "%"}]}, {"compound": "β -isocomene", "values": [{"measurement": "inhibition (%)", "setting": "acetylcholinesterase", "result": 40.8, "unit": "%"}]}]}
